Test results as given in a melting point compilation (Tetko et al.; mined from patent text by program, amines drawn as free bases though some values may be those of a salt).

Row | Compound | melting point [°C]
1 | COC(=O)c1ncoc1C(C)C | 49 to 50
2 | Nc1nc2c(s1)CCN(CC=Cc1ccc(F)cc1)CC2 | 142 to 146
3 | Cc1cc2c(c(C(C)(C)C)c1)OC(=O)C2O (stereo unspecified) | 152 to 160
4 | COc1cc(OC)c(-c2cc3ccccc3s2)cc1/C=C/C(=O)c1ccc(C(=O)NC(C)=O)cc1 | 228 to 229
5 | CCc1nc2c(cnn2CC)c(NC2CCOCC2)c1CNC(=O)c1cc(C)cc(C(=O)NCc2ccc(F)c(-c3cccc(C=O)c3)c2)c1 | 107 to 110
6 | O=C1Nc2cccc(-c3ccccc3)c2/C1=C/c1ccc[nH]1 | 184 to 185
7 | C[C@H](O)C(=O)Nc1ccccn1 | 102 to 104
8 | CCOC(=O)C1=C(C)Nc2nc(N)nc(N3CCOCC3)c2C1c1cccc([N+](=O)[O-])c1 (stereo unspecified) | 208
9 | COc1ccccc1N1CCN(C[C@H]2COc3ccc4nc(C)ccc4c3O2)CC1 | 44 to 47
10 | CN(C)S(=O)(=O)c1ccc2c(c1)C(=O)c1ccccc1CC2 | 122 to 124
11 | O=C(c1ccn2c1CSC2c1cccnc1)c1c[nH]c2cc(-c3ccc(F)cc3)ccc12 (stereo unspecified) | 248 to 252
12 | NC(=S)N1CCC(c2cccc(C(F)(F)F)c2)=N1 | 159 to 161
13 | O=C(c1cccc(C(F)(F)F)c1)N1CCc2cc(S(=O)(=O)N3CC(c4ccccc4)NC3=O)ccc21 (stereo unspecified) | 119
14 | Cc1cc(CC(C)(C)NCC(O)c2cc(OCc3ccccc3)cc3c2OCC(=O)N3)ccc1F (stereo unspecified) | 228 to 230
15 | O=CN1CCN(c2nc3cccc4c3n2CCC4)CC1 | 138 to 139
16 | COc1ccc(Sc2c(C(=O)O)[nH]c3cc(C)ccc23)cc1 | 190 to 192
17 | Cc1ccc(S(=O)(=O)N(Cc2ccc(C#N)cc2F)C2CCC2)cc1 | 146 to 147
18 | C[C@H]1CCCC(C)(C)[C@@H]1[C@H](O)c1ccc(C#N)c(Cl)c1 | 116 to 118
19 | CC(=Cc1ccc(N(C)C)cc1Br)[N+](=O)[O-] | 102 to 103
20 | CC(C)(NS(=O)(=O)c1ccccc1)c1ccccc1 | 114 to 115
21 | CCS(=O)(=O)OC(c1cccc(C(O)(C(F)(F)F)C(F)(F)F)c1)(C(F)(F)F)C(F)(F)F | 64
22 | O=c1oc(-c2cccc(S(=O)(=O)C(F)(F)F)c2)nc2ccccc12 | 96 to 102
23 | N#C/C=C\c1ccccc1C(=O)Cl | 72 to 74
24 | N#Cc1ccc(N2C(=O)N(CCF)C3(CCCC3)C2=O)cc1C(F)(F)F | 115
25 | Nc1cccc(-c2ccc(CCN3CCN(CCc4ccc(F)cc4)CC3)cc2)n1 | 165 to 167
26 | COc1cc2ncc(C#N)c(Nc3ccc(F)c(Cl)c3)c2cc1NC(=O)C=CCN(C)OC | 210 to 217

Row | Compound | melting point [°C]
27 | CS(=O)(=O)c1cccc(NC(=O)c2cnn3c(C(F)F)cc(-c4ccc(C(F)(F)F)c(F)c4)nc23)c1 | 238
28 | O=C(O)CC1=C(Cc2ccc3c(Cl)cccc3c2)C(=O)CCC1 | 98 to 100
29 | CC(C)(C)c1ccc(/C=C/C(=O)Nc2ccc3c(c2)NCC3)cc1 | 153 to 167
30 | Cc1oc(C=Cc2ccc(Cl)cc2)nc1CC(=O)O | 157 to 158
31 | CCOC(=O)CCc1cccc(N(C)C)c1 | 94 to 98
32 | CN(O)C(=O)C(=O)c1ccc(OCCOc2ccc3ccccc3c2)cc1 | 161 to 165
33 | Cn1c(=O)c2nc(-c3ccc(/C=C/C(=O)O)cc3)[nH]c2n(C)c1=O | 299 to 301
34 | COC1(c2cc(OCc3ccc4c(c3)OCCC4=NO)nc(N)n2)CCOCC1 | 224 to 228
35 | COc1ccc2c(ccn3c(C(F)(F)F)nnc23)c1 | 214 to 215
36 | O=C(Nc1ccc(-n2nc(C3CC3)cc2C2CC2)cc1)c1ccncc1F | 135 to 139
37 | CNC(Cc1ccccc1N)C(=O)c1ccc(OC)c(OC)c1 (stereo unspecified) | 128 to 131
38 | Fc1ccc(-c2nc3ccccc3n3cncc23)cc1 | 214 to 215
39 | CCCc1nc2c(N)nc3cccnc3c2n1CC1(O)CCCCC1 | 209 to 211
40 | CCOC(=O)c1sc(C2=C(C)NC(C)=C(C(=O)OC)C2c2ccccc2[N+](=O)[O-])nc1C (stereo unspecified) | 191 to 192
41 | COC(=O)Nc1nn2cccc2c(=O)[nH]1 | 232
42 | C=CCOC(=O)c1ccc(COC(=O)c2cc(C(C)(C)C)c(O)c(C(C)(C)C)c2)cc1 | 100 to 101
43 | COc1cc(OC)cc(-c2ncn(C)c2-c2ccc(OC(F)F)c(N)c2)c1 | 99.2 to 101
44 | CCOC(=O)C=Cc1c(C)cc(OC)c(C)c1C | 42 to 44
45 | CC(=NNC(=N)N)c1sc(-c2ccc(C(C)(C)C)cc2)nc1C | 252 to 253
46 | CCN(CC)CCNc1ccc(CNc2ccccc2)c2sc3ccccc3c(=O)c12 | 133 to 135
47 | COc1ccc(C(=O)N[C@@H](Cc2c[nH]c3ccccc23)C(=O)O)cc1 | 63 to 65
48 | CN(C)S(=O)(=O)c1ccc(-c2ccccc2)cc1S(=O)(=O)Cl | 140 to 143
49 | Cc1sc2cc(CCO)ccc2c1C(=O)O | 166 to 169
50 | CNCCN1C(=O)[C@H](O)[C@H](c2ccc(OC)cc2)Sc2cc(Cl)ccc21 | 142 to 145
51 | CCNC(=O)c1c(C2CC2)nc(CC)n1Cc1ccc2oc(-c3ccccc3NS(=O)(=O)C(F)(F)F)c(Br)c2c1 | 124 to 130
52 | O=C1c2ccccc2C(OCC2CO2)N1c1ccccc1 (stereo unspecified) | 76

Row | Compound | melting point [°C]
53 | CSc1noc(-c2ccc(OCCCCOc3ccccc3)cc2)c1C#N | 113 to 114
54 | CCCc1c(OCCOc2ccccc2C(=O)NCCCCc2cccnc2)ccc(C(C)=O)c1O | 77 to 80
55 | Cc1ccc(Nc2nc(-n3nc(C)cc3C)nc3ccccc23)cc1 | 210 to 216
56 | N#CC(C#N)=C1N(CCCCN2CCCCC2)CCN1CCN1CCCCC1 | 78 to 79
57 | O=C(O)C1CNC(C(=O)O)c2[nH]c3ccc(F)cc3c21 (stereo unspecified) | 233 to 234
58 | CCN(CC)CCOc1ccc(Nc2ncc3c(n2)N(C(C)C)C(=O)N(c2c(Cl)cccc2Cl)C3)cc1 | 125
59 | COc1ccc(CC(=O)O)c(C(=O)O)c1 | 175 to 177
60 | CC(C)(C)c1ccccc1N1CCN(C(=O)c2ccccn2)CC1 | 140 to 145
61 | CCc1cccc2c3c([nH]c12)C(CC)(CC(=O)O)OCC3=O (stereo unspecified) | 200 to 202
62 | CCC(=CC(CSc1nnnn1-c1ccccc1)=NO)C(C)[N+](=O)[O-] (stereo unspecified) | 66 to 69
63 | Cc1ccc2cc(-c3ccc(F)cc3F)ccc2n1 | 86
64 | O=S(=O)(CC(F)(F)F)N(Cc1cccnc1)c1cccc(Oc2ccccc2O)c1 | 57.5 to 60
65 | CS(=O)(=O)c1ccc(Br)cc1Br | 124 to 126
66 | O=C(O)COc1ccc(OC2CCN(c3ccncc3)CC2)cc1 | 288 to 291
67 | Clc1nc2cc3ccccc3cc2nc1Cl | 239 to 242
68 | CC1C2C(CON2C)CN1c1c(F)cc2c(=O)c(C(=O)O)cn(C3CC3)c2c1F (stereo unspecified) | 197 to 199
69 | Cc1nccn1CCC(=O)c1nn2c3c(cccc13)CCC2 | 133 to 134
70 | CNC(=O)N(O)C(C)c1ccc(F)cc1 (stereo unspecified) | 130 to 133
71 | COc1ccc2c(Cc3c(Cl)cncc3Cl)nnc(N3CCN(C)CC3)c2c1 | 160 to 162
72 | CCc1csc(-c2ccc3c(c2)C=C(C(=O)Nc2ccc(CN(C)C4CCOCC4)cc2)CCN3C)c1 | 139 to 141
73 | CCN(CC)CCOC(=O)C(C)(c1ccc(O)cc1)c1ccc(O)cc1 | 140 to 141
74 | CCOc1nn(C(=O)NS(=O)(=O)c2c(C)csc2C(=O)OC)c(=O)n1C | 169
75 | COc1ccc2c(c1)c(Cc1cc(=O)n(-c3cccc(C)c3)[nH]1)c(C)n2C(=O)c1ccc(Cl)cc1 | 120 to 122
76 | COc1cc(OC(C)C)ccc1/C=C/c1cc(/C=C/c2ccc3cc[nH]c3c2)n[nH]1 | 107 to 113
77 | O=C(O)c1cccc(CCl)c1 | 134 to 136
78 | O=C(Nc1nnn(CC2CC2)n1)C(c1ccccc1)c1ccccc1 | 147 to 148

Row | Compound | melting point [°C]
79 | CC(C)CC[C@H](O)[C@H](CC1CCCCC1)NC(=O)[C@@H](N)Cc1c[nH]cn1 | 126 to 130
80 | COc1ccc(CN(C)CCOc2ccc(NC(=O)c3cccc4c(=O)c5ccccc5[nH]c34)cc2)cc1 | 146
81 | CC(=O)Nc1c(Cl)cnc(OCCO)c1Cl | 131 to 132
82 | CC(C)(C)OC(=O)NCc1ccc(Nc2ncc(Br)cc2[N+](=O)[O-])cc1 | 178 to 180
83 | CCOc1cc(C(=O)OC)nc2cc(OC)c3ncccc3c12 | 188 to 190
84 | Cc1ccc(NC(=N)Nc2nc(-c3ccccc3)cs2)cc1 | 152 to 153
85 | CC(C)(C)OC(=O)c1ncn2c1COc1ccccc1-2 | 119 to 123
86 | O=C(Oc1cc[nH]c(=O)c1)c1ccc([N+](=O)[O-])cc1 | 255 to 256
87 | C=CCOc1ccccc1/C=C\C(=O)O | 80 to 82
88 | COc1ccc2c(c1OCc1ccccc1)CCCC2=O | 64
89 | O=Cc1ccc(F)cc1-c1noc2ccc(F)cc12 | 165 to 166
90 | CC(c1cccnc1)c1c[nH]c(=S)[nH]c1=O (stereo unspecified) | 225 to 228
91 | CCOC(=O)c1ccc(-c2c(Cl)c(CCl)nc3sc4c(c23)CCN(C(=O)OCc2ccccc2)C4)cc1 | 123 to 124
92 | COc1ccc(S(=O)(=O)NCc2ccccc2)c2c1oc1ccccc12 | 180 to 185
93 | CCSCC1=C(O)CC(C)(C)CC1=O | 134
94 | CCOC(=O)c1cc2cc(-c3ccc(Cl)cc3)ccc2o1 | 108 to 110
95 | COc1ccc(-c2csc(NC(=O)c3cc4ccccc4cn3)n2)cc1OC | 228 to 230
96 | COC(=O)c1ccc(Cc2cc3cc(Cl)ccc3n2S(=O)(=O)N2CCCCC2)cc1 | 133
97 | Cc1ccc([N+](=O)[O-])cc1N(C)c1nnn[nH]1 | 201 to 205
98 | ClC(=NNc1c(Cl)cc(Cl)cc1Cl)c1ccc(Cl)cc1 | 123 to 124
99 | CCOC(=O)C(C(=O)C(C)C)C(c1ccc(F)cc1)c1ccccn1 (stereo unspecified) | 106 to 108
100 | Cn1c(=O)oc2c3ncccc3c(Cl)cc21 | 219 to 221
101 | O=c1[nH]nc(CCc2cc(F)c(C(F)(F)F)c(F)c2)cc1O | 211 to 212
